Reference: PubChem BioAssay (NCI)
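The compound was tested at five concentrations on cells cultured in 96-well plates, with a 48-hour exposure period. GI50: concentration for 50% inhibition of growth. The concentration for full growth arrest is given as TGI.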

How the values were obtained:
Assay in all cases: inhibition of tumour cell growth, NCI panel, 48 h
SK-MEL-5 melanoma = system: SK-MEL-5 melanoma
786-0 renal = system: 786-0 renal
IGROV1 ovarian = system: IGROV1 ovarian
HOP-92 NSCLC = system: HOP-92 NSCLC
SNB-75 CNS = system: SNB-75 CNS
T-47D breast = system: T-47D breast
NCI/ADR-RES ovarian = system: NCI/ADR-RES ovarian
PC-3 prostate = system: PC-3 prostate
MDA-N = system: MDA-N
SNB-78 CNS = system: SNB-78 CNS
DMS 114 small cell lung = system: DMS 114 small cell lung
DLD-1 colon = system: DLD-1 colon
XF 498 CNS = system: XF 498 CNS

Compound | TGI (SK-MEL-5 melanoma) | TGI (786-0 renal) | TGI (IGROV1 ovarian) | TGI (HOP-92 NSCLC) | TGI (SNB-75 CNS) | TGI (T-47D breast) | TGI (NCI/ADR-RES ovarian) | TGI (PC-3 prostate) | TGI (MDA-N) | GI50 (SK-MEL-5 melanoma) | GI50 (HOP-92 NSCLC) | GI50 (SNB-75 CNS) | GI50 (T-47D breast) | GI50 (NCI/ADR-RES ovarian) | GI50 (PC-3 prostate) | GI50 (IGROV1 ovarian) | TGI (SNB-78 CNS) | TGI (DMS 114 small cell lung) | TGI (DLD-1 colon) | TGI (XF 498 CNS)
O=C(O)c1ccc(NC(c2ccccc2)c2ccc3cccnc3c2O)cc1 (centres undefined) | 29.8 µM | > 76.6 µM | > 95.8 µM | > 100 µM | 56.7 µM | 50.1 µM | > 45.3 µM | > 96 µM | > 100 µM |  |  |  |  |  |  |  |  |  |  | 
O=C1CC(=O)N(c2ccccc2)N1/C(=C/c1ccccc1)c1ccccc1 | 28.2 µM |  | 43.9 µM | 31.3 µM | 83.2 µM | 67.8 µM | 61.5 µM | 47.7 µM | 34.3 µM |  |  |  |  |  |  |  |  |  |  | 
COc1ccc(Nc2[nH]c(C(C)=O)c(N)c2C(=S)Nc2ccccc2)cc1 | > 100 µM | > 100 µM | > 100 µM | > 100 µM | > 100 µM | > 100 µM | > 100 µM |  | > 100 µM |  |  |  |  |  |  |  |  |  |  | 
O=C(NS(=O)(=O)Nc1ccc(Cl)cc1)OCc1ccc(Cl)cc1Cl | 39.1 µM | > 100 µM | 52.8 µM | 61.9 µM | > 100 µM |  | 49.9 µM | > 100 µM | 50.3 µM |  |  |  |  |  |  |  |  |  |  | 
CCC(=O)C(c1ccccc1)c1ccccn1 (centres undefined) | > 100 µM | > 100 µM | > 100 µM | > 100 µM | > 100 µM | > 100 µM | > 100 µM | > 100 µM | > 100 µM |  |  |  |  |  |  |  |  |  |  | 
C=CC(=O)Nc1cccc(-c2nc(SC)nc(Nc3ccccc3OC)c2C#N)c1 | 4.32 µM |  |  | 4.28 µM | 4.35 µM | 4.34 µM | 6.99 µM | 4.9 µM |  | 1.9 µM | 1.7 µM | 1.5 µM | 1.59 µM | 2.46 µM | 1.94 µM |  |  |  |  | 
C/C(=N\NC(=S)NC(C)C)c1nc2ncccc2[nH]1 | > 100 µM | > 100 µM | > 80.1 µM | 84.3 µM | > 66.7 µM | > 95.1 µM | > 100 µM | > 100 µM | > 100 µM |  |  |  |  |  |  |  |  |  |  | 
Cc1[nH]c(/C=C2\C(=O)Nc3ccc(S(=O)(=O)Cc4c(Cl)cccc4Cl)cc32)c(C)c1C(=O)N1CCC[C@@H]1CN1CCCC1 | 15.8 µM |  | 7.98 µM | > 44 µM |  | 35.9 µM | > 24.4 µM | > 21.5 µM |  | 2.58 µM | 2.09 µM |  | 12.2 µM | 2.96 µM | 1.73 µM | 3.09 µM |  |  |  | 
Nc1n[nH]c(=O)[nH]1 | > 100 µM |  | > 100 µM | > 100 µM | > 100 µM |  | > 100 µM |  |  |  |  |  |  |  |  |  | > 100 µM | > 100 µM | > 100 µM | > 100 µM
CSC1=Nc2ccccc2N(C)c2c1c(-c1ccccc1)nn2C | 43.4 µM |  | > 100 µM | > 100 µM | > 100 µM | 49.7 µM | > 100 µM | > 100 µM | > 100 µM |  |  |  |  |  |  |  |  |  |  | 
CCn1cc(C(c2ccc(Cl)cc2)n2ccnc2)c2cc(Br)ccc21 (centres undefined) | 31.2 µM |  | 24.8 µM | 19.4 µM | 28.5 µM |  | 42.7 µM | 22.8 µM | 66.2 µM |  |  |  |  |  |  |  |  |  |  | 
N#Cc1c(NC(=S)NC(=O)c2ccccc2)nc2c(c1-c1ccccc1)CCC2 | > 100 µM |  | > 100 µM |  | > 100 µM | > 100 µM | > 100 µM | > 100 µM | > 100 µM |  |  |  |  |  |  |  |  |  |  | 
CC(C)CC(N)C(=O)OCN1C(=O)C2C3C=CC(C2C1=O)C1C2C(=O)N(COC(=O)C(N)CC(C)C)C(=O)C2C31 (centres undefined) | > 100 µM | > 100 µM | > 100 µM | > 100 µM | > 100 µM |  |  |  |  |  |  |  |  |  |  |  | > 100 µM | > 100 µM | > 100 µM | 
Nc1ccccc1Nc1ccccc1C(=O)[O-].Nc1ccccc1Nc1ccccc1C(=O)[O-].[Cu+2] | > 100 µM | > 100 µM | > 100 µM |  | > 100 µM |  |  |  |  |  |  |  |  |  |  |  |  |  |  | > 100 µM
O=C(Nc1ccc(I)cc1C(=O)NCCO)c1cccs1 | > 100 µM |  | > 100 µM |  |  |  | > 100 µM | > 100 µM |  |  |  |  |  |  |  |  |  |  |  | 
Cc1ccc(-c2cc(N)n(-c3nc4c([nH]3)c(=O)n(C)c(=O)n4C)n2)cc1 | 17 µM | 13.6 µM | 18.3 µM | 32.2 µM |  | 23.6 µM | 7.81 µM | > 100 µM | > 100 µM |  |  |  |  |  |  |  |  |  |  | 
OCC1CCCC(n2cnc3c(=S)nc[nH]c32)O1 (centres undefined) | > 100 µM | > 100 µM | > 100 µM | > 100 µM | > 100 µM | > 100 µM | > 100 µM | > 100 µM | > 100 µM |  |  |  |  |  |  |  |  |  |  | 
COC1OC(=O)[C@H]2O[N+]([O-])=C(C)[C@@H]12 (some centres undefined) | > 100 µM |  | > 100 µM | > 100 µM | > 100 µM |  | > 100 µM |  |  |  |  |  |  |  |  |  | > 100 µM | > 100 µM | > 100 µM | > 100 µM
